Measured values published in patent US8193252B1, “Mesoprogestins (progesterone receptor modulators) for the treatment and prevention of benign hormone dependent gynecological disorders” (Bayer Pharma AG, priority 1999, dated 2012).

Experiments:
[1] = test system: pregnant rats; test: Abortifacient activity in pregnant rats; type: in vivo, rat; settings: s.c.; treatment days 5-7 of pregnancy, autopsy day 9; * SAS, probit procedure
Source text: (§1) The guinea pig is considered as relevant model of human gestation and parturition (Elger W, Fähnrich M, Beier S, Quing S S, Chwalisz K (1987). Endometrial and myometrial effects of progesterone antagonists in pregnant guinea pigs. Am J Obstet Gynecol 157: 1065-1074; Elger W, Neef G, Beier S, Fähnrich M, Gründel M, Heermann J, Malmendier A, Laurent D, Puri C P, Singh M M, Hasan S H, Becker H (1992). Evaluation of antifertility activities of antigestagens in animal model. In: Puri C P and Van Look P F A (eds), Current Concepts in Fertility Regulation and Reproduction. Wiley Eastern Limited, New Delhi, pp. 303-328; Elger W, Faehnrich M, Beier S, Qing S S, Chwalisz K (1986). Mechanism of action of progesterone antagonists in pregnant guinea pigs. Contraception 6: 47-62; Elger W, Chwalisz K, Faehnrich M, Hasan S H, Laurent D, Beier S, Ottow E, Neef G, Garfield R E (1990). Studies on labor-conditioning and labor-inducing effects of antiprogesterones in animal model. In: Garfield R E (eds), Norwell, pp. 153-175.) The mechanism of abortion of antiprogestins in this species is the initiation of labor and finally the expulsion of the conceptus. Abortifacient effects in the rat during very early pregnancy reflect inhibitory effects on nidation rather than initiation of uterine contractions. Studies in the rat model lead to “overestimation” of the potential of antiprogestins to terminate pregnancy in humans. Conversely, in the guinea pig model, irrespective of the antiprogestin doses, there were high rates of ongoing pregnancies similar to the situation in humans (Elger et al., Current Concepts in Fertility Regulation and Reproduction cited above). Furthermore, in both humans and guinea pigs, there is a strong synergism between antiprogestins and prostaglandins with respect the induction of labor (see the articles cited above and Elger W, Beier S (1983). Prostaglandine and Antigestagene für den Schwangerschaftsabbruch (Prostaglandins and antigestagens for pregnancy termination). German Patent DE 3337450 12; Van Look P, Bygdeman M (1989). Antiprogestational steroids: a new dimension in human fertility regulation. Oxford reviews of reproductive medicine 11: 2-60).

[2] = target: T1, GR (Homo sapiens, UniProt P04150); test: Relative binding activity (RBA) at GR, dexamethasone = 100%; settings: by Kaufmann
T1 sequence (P04150 1-777): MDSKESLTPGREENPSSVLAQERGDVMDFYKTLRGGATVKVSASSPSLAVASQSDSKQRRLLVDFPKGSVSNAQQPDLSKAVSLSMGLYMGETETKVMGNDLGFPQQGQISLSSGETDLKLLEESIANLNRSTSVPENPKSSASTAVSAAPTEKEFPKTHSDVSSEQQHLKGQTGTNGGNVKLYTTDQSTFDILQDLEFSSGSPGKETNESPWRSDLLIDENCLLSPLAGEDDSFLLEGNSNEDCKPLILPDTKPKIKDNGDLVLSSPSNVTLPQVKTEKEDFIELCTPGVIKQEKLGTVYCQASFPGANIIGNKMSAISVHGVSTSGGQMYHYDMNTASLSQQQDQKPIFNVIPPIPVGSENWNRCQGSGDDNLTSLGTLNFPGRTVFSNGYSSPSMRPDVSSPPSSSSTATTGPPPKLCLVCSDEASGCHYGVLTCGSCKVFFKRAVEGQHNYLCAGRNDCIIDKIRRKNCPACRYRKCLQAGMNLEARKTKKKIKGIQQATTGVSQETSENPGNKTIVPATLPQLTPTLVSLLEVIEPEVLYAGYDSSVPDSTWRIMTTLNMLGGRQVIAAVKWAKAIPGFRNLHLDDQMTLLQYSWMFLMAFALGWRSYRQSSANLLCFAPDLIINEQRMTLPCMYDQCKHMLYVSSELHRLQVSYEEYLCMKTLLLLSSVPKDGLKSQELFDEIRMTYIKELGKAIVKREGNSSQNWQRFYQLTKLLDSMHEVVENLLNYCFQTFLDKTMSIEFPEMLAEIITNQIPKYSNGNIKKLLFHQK

[3] = test system: pregnant guinea pigs; test: Abortifacient / labor inducing activity in pregnant guinea pigs; type: in vivo, guinea pig
Protocol: In the guinea pig model which allows a good prediction of the effects in humans with respect to the abortifacient activity (Elger W, Beier S., Chwalisz K, Fähnrich M, Hasan S H, Henderson D, Neef G, Rohde R (1986): Studies on the mechanism of action of progesterone antagonists. J Steroid Biochem 25: 835-845) the mesoprogestins J 867, J 912, J 956, J 1042 lead up to 100 mg/kg/day to a maximal abortion rate of 20%.
as §1
Pregnant guinea pigs were treated on days 43 and 44 of pregnancy and observed until day 50 of gestation. For the effects of various treatments see table 1 and FIG. 2. It is typical for this model that expulsions occur with a delay of several days after treatment. It can be seen that Mesoprogestins have a much reduced abortifacient activity compared to RU486. […] The differences with respect to abortifacient activity seem qualitative ones. It is not possible to overcome the low abortifacient activity of a Mesoprogestin by the use of a higher dose.
FIG. 2 is graphs showing data on the assessment on cumulative rate of abortion until day 50 in guinea pigs treated on days 43 and 44 of pregnancy.

[4] = target: T2, progesterone receptor (PR) (Oryctolagus cuniculus, UniProt P06186); test: McPhail test, PR antagonistic (antiprogestagenic) activity in estradiol-primed juvenile rabbits in the presence of progesterone; type: in vivo; settings: 4 days s.c., in the presence of progesterone 1 mg/rabbit s.c.
T2 construct: effects of PR-modulators in the uterus of estrogen primed immature rabbits (McPhail test); from tissue; host or cells: uterus (endometrium) of estradiol-primed juvenile rabbits, in vivo
T2 sequence (P06186 1-930): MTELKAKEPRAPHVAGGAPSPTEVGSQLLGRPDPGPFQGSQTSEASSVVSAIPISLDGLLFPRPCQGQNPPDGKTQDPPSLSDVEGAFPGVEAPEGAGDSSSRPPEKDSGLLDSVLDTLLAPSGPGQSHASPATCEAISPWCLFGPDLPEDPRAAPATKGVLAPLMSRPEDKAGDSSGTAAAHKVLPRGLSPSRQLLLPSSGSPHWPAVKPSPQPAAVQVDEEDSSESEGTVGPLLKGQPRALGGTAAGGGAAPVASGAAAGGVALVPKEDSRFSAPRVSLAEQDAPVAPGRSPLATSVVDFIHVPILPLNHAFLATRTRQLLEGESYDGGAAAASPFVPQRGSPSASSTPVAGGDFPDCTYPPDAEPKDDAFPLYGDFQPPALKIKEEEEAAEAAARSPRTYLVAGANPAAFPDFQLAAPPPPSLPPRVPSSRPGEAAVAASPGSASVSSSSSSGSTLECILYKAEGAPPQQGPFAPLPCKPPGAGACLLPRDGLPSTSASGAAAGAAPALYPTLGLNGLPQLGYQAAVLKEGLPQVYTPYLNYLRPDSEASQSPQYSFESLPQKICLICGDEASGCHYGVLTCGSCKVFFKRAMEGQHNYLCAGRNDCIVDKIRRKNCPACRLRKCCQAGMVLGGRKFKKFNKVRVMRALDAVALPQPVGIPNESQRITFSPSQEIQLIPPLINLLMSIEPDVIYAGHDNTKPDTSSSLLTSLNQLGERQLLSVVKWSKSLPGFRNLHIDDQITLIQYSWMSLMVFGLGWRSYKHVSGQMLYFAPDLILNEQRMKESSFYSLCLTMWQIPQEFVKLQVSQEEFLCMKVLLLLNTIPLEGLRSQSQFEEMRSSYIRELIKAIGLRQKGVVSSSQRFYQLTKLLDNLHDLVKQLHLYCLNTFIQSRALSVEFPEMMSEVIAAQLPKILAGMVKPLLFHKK
Protocol: The capacity of mesoprogestins to antagonize progesterone function is also tested in the McPhail test using a progesterone dose which induces a McPhail score ranging between 3 and 4.
The PR antagonistic and agonistic properties of mesoprogestins were assessed in estrogen-primed rabbits in the McPhail test according to Selye (Textbook of Endocrinology, 1947, pp. 345-346).

SMILES: CC#C[C@]1(O)CC[C@H]2[C@@H]3CCC4=CC(=O)CCC4=C3[C@@H](c3ccc(N(C)C)cc3)C[C@@]21C [RU 486, mifepristone, reference compound]
- abortifacient activity ED50, rat [1]: 0.98* mg/animal/day
- RBA (%) GR [2]: 685%
- abortifacient activity ED50, guinea pig ([3]; s.c., treatment day 43-44 of pregnancy, autopsy day 50): 3.8 mg/animal/day
- ranking of abortifacient activity ([3]; treated on days 43 and 44 of pregnancy, observed until day 50): RU486>J956>J867, J912>J1042
- dose of first antiprogestagenic effect [4]: 0.3-1 mg/rabbit
